# Patent US7671061B2, “Methods and compositions for treating pain” (Hydra Biosciences, Inc., priority 2005, dated 2010)
# Molecular target: T1, hTRPA1 (Homo sapiens, UniProt O75762, K186N)
# T1 construct: expressed in transfected cells; host or cells: HEK293/TREx (Invitrogen), induced with tetracycline
# Assay: High throughput Ca2+ fluorescence (Fluo4) assay, AITC stimulation
# Assay type: cell-based
# Conditions: Table 1; read-out: hTRPA1 Fluo4 IC50
# Source text: The assay depended on detection of the rise in intracellular Ca^2+ concentration ([Ca^2+]i) following channel activation in cells inducibly expressing the TRPA1 channel. Ca^2+ rise was quantified with the use of fluorescent Ca^2+ indicators that were loaded into cells and thereafter indicated the [Ca^2+]i. Ca^2+ influx followed activation of the TRPA1 channel. Compounds inhibiting the [Ca^2+]i rise were considered hits for further investigation.
# These cells were maintained in the growth medium recommended by the manufacturer supplemented with 100 μg/ml hygromycin to promote retention of the TRPA1 construct. After growing to near confluency, cells were plated at a density of ˜25,000 cells/well in 384 well CellBind plates (Corning) in the presence of 1 μg/ml tetracycline, and allowed to grow for 20-30 hrs. A nearly confluent monolayer resulted. Cells were then loaded with Ca^2+ dye: Fura-2/AM or Fluo4/AM was added to the wells to a final concentration of 2 μM or 1 μM, respectively, and incubated for 80 min or 60 min, respectively, at room temperature. […] Frames were acquired at a rate of 0.2 Hz. During the assay, the plates were continuously […], with pipette mixing of wells following addition of each reagent. For the screening assay, 13 μl of a diluted stock (at 50 μM) was added to each well for 2 minutes following the collection of a short (4 frame) baseline. […] Data was collected for ˜3 minutes following addition of AITC, where the fluorescent intensity (for Fluo4) and the F340/F380 ratio (for Fura-2) were proportional to the [Ca^2+]i. Negative controls consisted of HEK293/TREx TRPA1 cells exposed to AITC, but no compound. […] These controls defined a screening window, and “hits” were defined as those compounds inhibiting the fluorescence response by at least 40%. IC50 values were determined for compounds defined as “hits.” The Fluo4 cell-based fluorescence assay was used to determine the intracellular Ca^2+ concentration in the presence of varying drug concentration. […] Compounds were tested in triplicate at all concentrations. Standard software was used to fit IC50 curves.
# T1 sequence (O75762 whole entry K186N): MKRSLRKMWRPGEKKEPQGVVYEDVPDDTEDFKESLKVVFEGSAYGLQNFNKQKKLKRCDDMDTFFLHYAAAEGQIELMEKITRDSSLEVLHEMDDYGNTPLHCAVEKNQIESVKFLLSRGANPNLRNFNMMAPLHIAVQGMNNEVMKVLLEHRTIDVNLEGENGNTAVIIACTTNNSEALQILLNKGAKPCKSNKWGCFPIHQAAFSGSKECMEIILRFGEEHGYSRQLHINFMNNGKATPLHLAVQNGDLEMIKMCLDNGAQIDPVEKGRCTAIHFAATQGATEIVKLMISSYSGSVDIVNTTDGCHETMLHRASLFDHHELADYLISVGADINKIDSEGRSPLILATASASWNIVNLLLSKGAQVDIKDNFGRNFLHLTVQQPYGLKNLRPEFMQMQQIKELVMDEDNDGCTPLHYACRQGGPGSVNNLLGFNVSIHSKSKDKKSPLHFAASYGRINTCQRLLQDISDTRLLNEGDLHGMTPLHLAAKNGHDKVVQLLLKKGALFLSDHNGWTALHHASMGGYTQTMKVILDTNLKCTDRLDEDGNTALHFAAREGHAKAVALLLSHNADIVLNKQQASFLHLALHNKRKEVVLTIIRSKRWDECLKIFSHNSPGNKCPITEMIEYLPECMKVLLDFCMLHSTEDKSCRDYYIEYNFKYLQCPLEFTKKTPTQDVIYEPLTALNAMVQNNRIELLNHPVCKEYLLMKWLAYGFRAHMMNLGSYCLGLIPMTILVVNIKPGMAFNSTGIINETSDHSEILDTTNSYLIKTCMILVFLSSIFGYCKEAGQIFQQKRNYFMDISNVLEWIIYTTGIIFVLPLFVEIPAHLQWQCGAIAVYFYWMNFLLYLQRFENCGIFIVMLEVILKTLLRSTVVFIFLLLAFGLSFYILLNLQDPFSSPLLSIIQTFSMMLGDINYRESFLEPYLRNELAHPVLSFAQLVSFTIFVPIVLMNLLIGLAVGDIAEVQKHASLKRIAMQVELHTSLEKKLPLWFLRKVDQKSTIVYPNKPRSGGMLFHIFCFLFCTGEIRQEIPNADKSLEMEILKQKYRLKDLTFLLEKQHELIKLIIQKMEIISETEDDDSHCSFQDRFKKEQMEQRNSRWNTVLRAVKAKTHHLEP
row,Structure (SMILES),IC50 [µM]
1,CCCOC(=O)C1=C(C)NC(=O)NC1c1ccc(N(CC)CC)cc1 (stereo not drawn),> 10
2,CCOC(=O)C1=C(c2ccccc2)NC(=S)NC1c1ccccc1OC (stereo not drawn),> 10
3,COC(=O)C1=C(C)N(C)C(=O)NC1c1cc(Br)ccc1F (stereo not drawn),> 10
4,CCN(CC)C(=O)C1=C(C)NC(=S)NC1c1ccccc1 (stereo not drawn),> 10
5,CCN(CC)C(=O)C1=C(C)NC(=O)NC1c1c(F)cccc1Cl (stereo not drawn),> 10
6,COC(=O)C1=C(CN2CCN(C)CC2)NC(=O)NC1c1cc(C)ccc1C (stereo not drawn),> 10
7,COc1ccc(C2NC(=S)N(C)C(C)=C2C(=O)Nc2ccccc2)cc1 (stereo not drawn),> 10
8,C=CCOC(=O)C1=C(C)NC(=O)NC1c1ccc(F)cc1 (stereo not drawn),> 10
9,CCN(CC)C(=O)C1=C(C)NC(=S)NC1c1cc(OC)ccc1OC (stereo not drawn),> 10
10,CC1=C(C(=O)OC(C)C)C(c2ccccc2F)NC(=S)N1 (stereo not drawn),> 10
11,CCOC(=O)C1=C(C)NC(=S)NC1c1cc(OC)ccc1OC (stereo not drawn),> 10
12,CC1=C(C(=O)OCCc2ccccc2)C(c2ccccc2)NC(=O)N1 (stereo not drawn),> 10
13,CCOC(=O)C1=C(C)N(C)C(=S)NC1c1ccccc1 (stereo not drawn),> 10
14,COc1cccc(C2NC(=S)NC(C)=C2C(=O)OCc2ccccc2)c1 (stereo not drawn),> 10
15,CCOC(=O)C1=C(C)NC(=S)NC1c1ccc(N(C)C)cc1 (stereo not drawn),> 10
16,CCOC(=O)C1=C(C)NC(=S)NC1c1ccc(OC)c(OC)c1 (stereo not drawn),> 10
17,CC1=C(C(=O)OCC(C)C)C(c2ccc([N+](=O)[O-])cc2)NC(=O)N1C (stereo not drawn),≤ 5
18,CCN(CC)C(=O)C1=C(C)NC(=S)NC1c1ccc(Br)cc1 (stereo not drawn),> 10
19,CC1=C(C(=O)Nc2ccc(Br)cc2)C(c2ccccc2)NC(=O)N1C (stereo not drawn),> 10
20,COC(=O)C1=C(C)NC(=O)NC1c1ccc(O)cc1 (stereo not drawn),> 10
21,CC1=C(C(=O)OC2CCCC2)C(c2ccccc2Br)NC(=O)N1 (stereo not drawn),> 10
22,COC(C)OC(=O)C1=C(C)NC(=O)NC1c1cccc(Cl)c1Cl (stereo not drawn),> 10
23,CCOC(=O)C1=C(CN2CCc3ccccc32)NC(=O)NC1c1ccc(Cl)cc1 (stereo not drawn),≤ 10
24,CC1=C(C(=O)N(C)C)C(c2ccc(C)cc2)NC(=S)N1 (stereo not drawn),> 10
25,CC1=C(C(=O)OC2CCCCCC2)C(c2cccc(C)c2)NC(=O)N1 (stereo not drawn),> 10

row,Structure (SMILES),IC50 [µM]
1,CCN(CC)C(=O)C1=C(C)NC(=S)NC1c1ccccc1F (stereo not drawn),> 10
2,CCOC(=O)C1=C(C)NC(=O)NC1c1ccc(OCC)cc1 (stereo not drawn),> 10
3,COC(=O)C1=C(C)N(C)C(=O)NC1c1cccc(C)c1 (stereo not drawn),> 10
4,COc1cc(Br)cc(C2NC(=S)NC(C)=C2C(=O)N(C)C)c1OC (stereo not drawn),> 10
5,CC1=C(C(=O)OC(C)C)C(c2c(O)ccc3ccccc23)NC(=S)N1 (stereo not drawn),> 10
6,CCN(CC)C(=O)C1=C(C)NC(=S)NC1c1cc(Br)cc(OC)c1OC (stereo not drawn),> 10
7,CCOC(=O)C1=C(C)NC(=O)NC1c1ccccc1C (stereo not drawn),> 10
8,COC(=O)C1=C(C)N(C)C(=O)NC1c1ccc(C(C)(C)C)cc1 (stereo not drawn),> 10
9,CC1=C(C(=O)OC(C)(C)C)C(c2ccc(Br)cc2)NC(=O)N1 (stereo not drawn),> 10
10,COC(=O)C1=C(C)NC(=O)NC1c1ccc(C(C)(C)C)cc1 (stereo not drawn),> 10
11,CC1=C(C(=O)OC(C)C)C(c2c(F)cccc2Cl)NC(=O)N1 (stereo not drawn),> 10
12,COC(=O)C1=C(C)N(C)C(=O)N(C)C1c1cccc([N+](=O)[O-])c1 (stereo not drawn),> 10
13,CCN(CC)C(=O)C1=C(C)NC(=S)NC1c1ccc(F)cc1 (stereo not drawn),> 10
14,CC1=C(C(=O)OCC(C)C)C(c2c(F)cccc2Cl)NC(=O)N1C (stereo not drawn),≤ 10
15,CCN(CC)C(=O)C1=C(C)NC(=O)NC1c1ccc(OC)c(Cl)c1 (stereo not drawn),> 10
16,CC1=C(C(=O)OCc2ccccc2)C(c2ccc(F)cc2)NC(=O)N1 (stereo not drawn),> 10
17,C=CCOC(=O)C1=C(C)NC(=S)NC1c1ccccc1F (stereo not drawn),> 10
18,COC(=O)C1=C(CN2CCc3ccccc32)NC(=O)NC1c1cc(C)ccc1C (stereo not drawn),> 10
19,COC(=O)C1=C(C)NC(=O)NC1c1ccccc1OC (stereo not drawn),> 10
20,CCOC(=O)C1=C(c2ccccc2)NC(=S)NC1c1ccccc1 (stereo not drawn),≤ 10
21,COc1ccc(C2NC(=O)N(C)C(C)=C2C(=O)Nc2ccccc2C)cc1 (stereo not drawn),> 10
22,CC1=C(C(=O)N(C)C)C(c2ccccc2)NC(=S)N1 (stereo not drawn),> 10
23,CC1=C(C(=O)N2CCOCC2)C(c2ccc(Cl)cc2)NC(=O)N1 (stereo not drawn),> 10
24,CCCC1=C(C(=O)OCC)C(c2ccc(Br)cc2)NC(=O)N1 (stereo not drawn),≥ 30

# Same assay, conditions: Table 2; read-out: hTRPA1 Fluor IC50
row,Structure (SMILES),IC50 [µM]
1,CN(CC(=O)Nc1ccc(F)c(F)c1F)C(=O)Cn1cnc2c1c(=O)n(C)c(=O)n2C [Compound 293],> 10
2,Cn1c(=O)c2c(ncn2CC(=O)Nc2ccnn2C2CCCC2)n(C)c1=O [Compound 340],> 10
3,COc1ccccc1NC(=O)C(C)n1cnc2c1c(=O)n(C)c(=O)n2C (stereo not drawn) [Compound 303],> 10
4,COc1ccc(Nc2ccc(NC(=O)Cn3cnc4c3c(=O)n(C)c(=O)n4C)cc2)cc1 [Compound 249],≥ 20
5,CCOC(=O)c1ccc(NC(=O)Cn2cnc3c2c(=O)n(C)c(=O)n3C)cc1 [Compound 366],≤ 5
6,CCc1cccc(CC)c1NC(=O)Cn1cnc2c1c(=O)n(C)c(=O)n2C [Compound 383],> 10
7,Cn1c(=O)c2c(ncn2CC(=O)Nc2ccccc2-c2nc3ccccc3[nH]2)n(C)c1=O [Compound 260],> 10
8,Cn1c(=O)c2c(ncn2CC(=O)NCC(c2ccc(F)cc2)N2CCOCC2)n(C)c1=O (stereo not drawn) [Compound 317],> 10
9,Cn1c(=O)c2c(ncn2CC(=O)Nc2ccccc2SCc2ccccc2)n(C)c1=O [Compound 351],> 10
10,Cn1c(=O)c2c(ncn2CC(=O)Nc2cccc3ccccc23)n(C)c1=O [Compound 231],> 10
11,Cc1cc(C)n(CCCNC(=O)Cn2cnc3c2c(=O)n(C)c(=O)n3C)n1 [Compound 323],> 10
12,Cn1c(=O)c2c(ncn2CC(=O)NCc2ccncc2)n(C)c1=O [Compound 242],> 10
13,COc1cc2c(cc1NC(=O)Cn1cnc3c1c(=O)n(C)c(=O)n3C)oc1ccccc12 [Compound 253],> 10
14,CCn1c2ccccc2c2cc(NC(=O)Cn3cnc4c3c(=O)n(C)c(=O)n4C)ccc21 [Compound 254],> 10
15,CC(C)C(C)NC(=O)Cn1cnc2c1c(=O)n(C)c(=O)n2C (stereo not drawn) [Compound 332],> 10
16,Cc1ccc(NC(=O)NC(=O)Cn2cnc3c2c(=O)n(C)c(=O)n3C)c(C)c1 [Compound 292],> 10
17,CCc1sc(NC(=O)Cn2cnc3c2c(=O)n(C)c(=O)n3C)nc1-c1ccccc1 [Compound 381],≤ 10
18,CC(C(=O)Nc1ccc(F)cc1)n1cnc2c1c(=O)n(C)c(=O)n2C (stereo not drawn) [Compound 327],> 10
19,CCc1cccc(C)c1NC(=O)Cn1cnc2c1c(=O)n(C)c(=O)n2C [Compound 359],> 10

row,Structure (SMILES),IC50 [µM]
1,Cc1cccc(NC(=O)C(C)n2cnc3c2c(=O)n(C)c(=O)n3C)c1 (stereo not drawn) [Compound 328],≥ 30
2,Cn1c(=O)c2c(ncn2CC(=O)NCc2ccccc2CN2CCOCC2)n(C)c1=O [Compound 337],> 10
3,COC(=O)c1ccc(C)c(NC(=O)Cn2cnc3c2c(=O)n(C)c(=O)n3C)c1 [Compound 346],≥ 30
4,COc1ccc(CNC(=O)Cn2cnc3c2c(=O)n(C)c(=O)n3C)cc1OC [Compound 319],> 10
5,Cn1c(=O)c2c(ncn2CC(=O)NCc2cccc(Cl)c2)n(C)c1=O [Compound 286],> 10
6,Cc1ccc(NC(=O)Cn2cnc3c2c(=O)n(C)c(=O)n3C)nc1 [Compound 372],≥ 30
7,Cc1ccc(-c2csc(NC(=O)Cn3cnc4c3c(=O)n(C)c(=O)n4C)n2)cc1C [Compound 270],> 10
8,Cn1c(=O)c2c(ncn2CC(=O)NCCOc2ccc(C(C)(C)C)cc2)n(C)c1=O [Compound 320],≤ 10
9,COC(=O)c1ccccc1NC(=O)Cn1cnc2c1c(=O)n(C)c(=O)n2C [Compound 365],> 10
10,CC(NC(=O)Cn1cnc2c1c(=O)n(C)c(=O)n2C)c1ccccc1 (stereo not drawn) [Compound 220],> 10
11,Cn1c(=O)c2c(ncn2CC(=O)NCCOC(=O)c2ccc(Cl)cc2)n(C)c1=O [Compound 256],> 10
12,Cn1c(=O)c2c(ncn2CC(=O)Nc2cccc([N+](=O)[O-])c2)n(C)c1=O [Compound 223],≤ 10
13,CC1CCCC(NC(=O)Cn2cnc3c2c(=O)n(C)c(=O)n3C)C1C (stereo not drawn) [Compound 349],> 10
14,Cn1c(=O)c2c(ncn2CC(=O)NC2CCCCCCC2)n(C)c1=O [Compound 278],> 10
15,CCN(C(=O)Cn1cnc2c1c(=O)n(C)c(=O)n2C)c1ccccc1 [Compound 283],> 10
16,CC(C)N(C(=O)Cn1cnc2c1c(=O)n(C)c(=O)n2C)c1ccccc1 [Compound 336],> 10
17,Cc1ccc(NC(=O)Cn2cnc3c2c(=O)n(C)c(=O)n3C)c(Br)c1 [Compound 265],≥ 20
18,Cn1c(=O)c2c(ncn2CC(=O)NC(C)(C)C)n(C)c1=O [Compound 289],> 10
19,CC1CCCCC1NC(=O)Cn1cnc2c1c(=O)n(C)c(=O)n2C (stereo not drawn) [Compound 279],> 10
